Target: T1, tau protein 1N/4R isoform (Homo sapiens, UniProt P10636)
T1 construct: gene MAPT; recombinant human His-tagged tau 1N/4R isoform, expressed in E. coli BL21(DE3)
Assay: intrinsic Tyr fluorescence quenching titration (Stern-Volmer/Hill; Kb at […] °C), Job's plot […]; supported by ThT aggregation assay, CD and AFM
Format: binding
Details: read-out: Kb×10^4(M^-1) (converted)

T1 sequence (P10636 1-412 isoform P10636-7): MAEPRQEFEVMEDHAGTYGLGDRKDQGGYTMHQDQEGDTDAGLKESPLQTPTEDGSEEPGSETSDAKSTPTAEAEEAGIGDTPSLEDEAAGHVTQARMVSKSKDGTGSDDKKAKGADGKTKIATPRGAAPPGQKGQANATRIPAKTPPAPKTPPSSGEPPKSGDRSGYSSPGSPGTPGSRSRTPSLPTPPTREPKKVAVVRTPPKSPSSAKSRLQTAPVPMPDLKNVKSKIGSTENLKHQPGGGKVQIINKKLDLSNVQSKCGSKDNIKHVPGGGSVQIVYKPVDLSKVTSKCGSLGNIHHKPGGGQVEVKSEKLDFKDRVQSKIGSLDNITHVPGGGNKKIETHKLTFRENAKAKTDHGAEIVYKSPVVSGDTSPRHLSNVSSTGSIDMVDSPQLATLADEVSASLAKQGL

## C=C(C)[C@@H]1CCC(C)=C[C@H]1c1c(O)cc(CCCCC)cc1O [Cannabidiol]
  Kd: 23.8 µM
